Target: T1, human oxytocin receptor (Homo sapiens, UniProt P30559)
T1 construct: host or cells: CHO cells (pcDNA3.1 vector)
T1 sequence (P30559 1-389): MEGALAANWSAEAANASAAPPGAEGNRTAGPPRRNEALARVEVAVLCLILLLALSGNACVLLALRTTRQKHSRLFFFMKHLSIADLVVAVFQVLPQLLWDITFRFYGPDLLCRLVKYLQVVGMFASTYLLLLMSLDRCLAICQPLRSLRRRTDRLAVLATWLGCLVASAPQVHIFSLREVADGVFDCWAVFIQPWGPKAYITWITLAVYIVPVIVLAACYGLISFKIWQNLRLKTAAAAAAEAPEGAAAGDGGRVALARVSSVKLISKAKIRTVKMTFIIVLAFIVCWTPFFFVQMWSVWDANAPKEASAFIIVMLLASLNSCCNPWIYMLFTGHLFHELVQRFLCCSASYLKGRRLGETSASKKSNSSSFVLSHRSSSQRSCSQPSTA
Experiment: Oxytocin binding in Chinese Hamster Ovary cell membranes expressing human oxytocin receptors
Settings: 100 nM, CHO cell membranes, [3H]oxytocin, values without parentheses, read-out: OT % inhibition @ 100% nM

| SMILES | inhibition at 0.1 µM [%] |
| --- | --- |
| COc1cc(C(=O)N2Cc3ccc(C(=O)NCCCN(C)C)n3Cc3ccccc32)ccc1-c1ccccc1C [Example 77, N-[3-(Dimethylamino)propyl]-10-[(2-methoxy-2′-methyl[1,1′-biphenyl]-4-yl)carbonyl]-10,11-dihydro-5H-pyrrolo[2,1-c][1,4]benzodiazepine-3-carboxamide] | 65 |
| Cc1cc(C(=O)N2Cc3cccn3Cc3ccccc32)cc(C)c1-n1c(C)ccc1C [Example 30, [4-(2,5-Dimethyl-1H-pyrrol-1-yl)-3,5-dimethyl-phenyl][10,11-dihydro-5H-pyrrolo[2,1-c][1,4]benzodiazepin-10-yl]methanone] | 48 |
| Cc1cc(C(=O)N2Cc3ccc(C(=O)N[C@H]4CN5CCC4CC5)n3Cc3ccccc32)ccc1-c1ccccc1C(F)(F)F [Example 301, N-[(3R)-1-Azabicyclo[2.2.2]oct-3-yl]-10-{[2-methyl-2′-(trifluoromethyl)[1,1′-biphenyl]-4-yl]carbonyl}-10,11-dihydro-5H-pyrrolo[2,1-c][1,4]benzodiazepine-3-carboxamide] | 82 |
| COc1cc(C(=O)N2Cc3ccc(C(=O)N4CCCN(C)CC4)n3Cc3ccccc32)ccc1-c1cccc2ccccc12 [Example 68, {10-[3-Methoxy-4-(1-naphthyl)benzoyl]-10,11-dihydro-5H-pyrrolo[2,1-c][1,4]benzodiazepin-3-yl}(4-methyl-1,4-diazepan-1-yl)methanone] | 64 |
| COc1ccccc1-c1ccc(C(=O)N2Cc3ccc(C(=O)N[C@@H](Cc4c[nH]cn4)C(N)=O)n3Cc3ccccc32)cc1OC [Example 286, N-[(1S)-2-Amino-1-(1H-imidazol-4-ylmethyl)-2-oxoethyl]-10-[(2,2′-dimethoxy[1,1′-biphenyl]-4-yl)carbonyl]-10,11-dihydro-5H-pyrrolo[2,1-c][1,4]benzodiazepine-3-carboxamide] | 86 |
| COc1cccc(-c2ccc(C(=O)N3Cc4ccc(C(=O)N5CCCN(C)CC5)n4Cc4ccccc43)cc2OC)c1 [Example 70, {10-[(2,3′-Dimethoxy[1,1′-biphenyl]-4-yl)carbonyl]-10,11-dihydro-5H-pyrrolo[2,1-c][1,4]benzodiazepin-3-yl}(4-methyl-1,4-diazepan-1-yl)methanone] | 75 |
| COc1cc(C(=O)N2Cc3ccc(C(=O)N4CCN(C)CC4)n3Cc3ccccc32)ccc1-c1ccccc1C [Example 53, {10-[(2-Methoxy-2′-methyl[1,1′-biphenyl]-4-yl)carbonyl]-10,11-dihydro-5H-pyrrolo[2,1-c][1,4]benzodiazepin-3-yl}(4-methyl-1-piperazinyl)methanone] | 89 |
| COc1ccccc1-c1ccc(C(=O)N2Cc3ccc(C(=O)N[C@H]4CN5CCC4CC5)n3Cc3ccccc32)cc1 [Example 296, N-[(3R)-1-Azabicyclo[2.2.2]oct-3-yl]-10-[(2′-methoxy[1,1′-biphenyl]-4-yl)carbonyl]-10,11-dihydro-5H-pyrrolo[2,1-c][1,4]benzodiazepine-3-carboxamide] | 88 |
| COc1ccccc1-c1ccc(C(=O)N2Cc3ccc(C(=O)N[C@@H](Cc4c[nH]cn4)C(N)=O)n3Cc3ccccc32)cc1C [Example 288, N-[(1S)-2-Amino-1-(1H-imidazol-4-ylmethyl)-2-oxoethyl]-10-[(2′-methoxy-2-methyl[1,1′-biphenyl]4-yl)carbonyl]-10,11-dihydro-5H-pyrrolo[2,1-c][1,4]benzodiazepine-3-carboxamide] | 95 |
| COc1cc(-c2ccccc2C)c(Cl)cc1C(=O)N1Cc2ccc(C(=O)N[C@@H]3CN4CCC3CC4)n2Cc2ccccc21 [Example 297, N-[(3S)-1-Azabicyclo[2.2.2]oct-3-yl]-10-[(6-chloro-3-methoxy-2′-methyl-[1,1′-biphenyl]-4-yl)carbonyl]-10,11-dihydro-5H-pyrrolo[2,1-c][1,4]benzodiazepine-3-carboxamide] | 73 |
| COc1cc(C(=O)N2Cc3cccn3Cc3ccccc32)ccc1-c1ccccc1C(F)(F)F [Example 19D, (10,11-Dihydro-5H-pyrrolo[2,1-c][1,4]benzodiazepin-10-yl)-(2-methoxy-2′-trifluoromethyl-[1,1′-biphenyl]-4-yl)-methanone] | 97 |
| Cc1cc(C(=O)N2Cc3ccc(C(=O)N[C@@H](Cc4c[nH]cn4)C(N)=O)n3Cc3ccccc32)ccc1-c1ccccc1C(F)(F)F [Example 284, N-[(1S)-2-Amino-1-(1H-imidazol-4-ylmethyl)-2-oxoethyl]-10-{[2-methyl-2′-(trifluoromethyl)[1,1′-biphenyl]-4-yl]carbonyl}-10,11-dihydro-5H-pyrrolo[2,1-c][1,4]benzodiazepine-3-carboxamide] | 87 |
| O=C(c1ccc(-c2ccccc2)nc1)N1Cc2cccn2Cc2ccccc21 [Example 29, (6-Phenyl-pyridin-3-yl)-[10,11-dihydro-5H-pyrrolo[2,1-c][1,4]benzodiazepin-10-yl]methanone] | 51 |
| COc1ccccc1-c1ccc(C(=O)N2Cc3ccc(C(=O)N4CCN(C)CC4)n3Cc3ccccc32)cc1C [Example 49, {10-[(2′-Methoxy-2-methyl[1,1′-biphenyl]-4-yl)carbonyl]-10,11-dihydro-5H-pyrrolo[2,1-c][1,4]benzodiazepin-3-yl}(4-methyl-1-piperazinyl)methanone] | 92 |
| COc1cc(-c2ccccc2C)c(Cl)cc1C(=O)N1Cc2ccc(C(=O)N[C@@H](CCCCNC(=O)OC(C)(C)C)C(N)=O)n2Cc2ccccc21 [Example 304, tert-Butyl (5S)-6-amino-5-[({10-[(6-chloro-3-methoxy-2′-methyl[1,1′-biphenyl]-4-yl)carbonyl]-10,11-dihydro-5H-pyrrolo[2,1-c][1,4]benzodiazepin-3-yl}carbonyl)amino]-6-oxohexylcarbamate] | 74 |
| COc1cc(C(=O)N2Cc3ccc(C(=O)N4CCN(CCCN(C)C)CC4)n3Cc3ccccc32)ccc1-c1cccc2ccccc12 [Example 253, {4-[3-(Dimethylamino)propyl]-1-piperazinyl}{10-[3-methoxy-4-(1-naphthyl)benzoyl]-10,11-dihydro-5H-pyrrolo[2,1-c][1,4]benzodiazepin-3-yl}methanone] | 71 |
| COc1cccc(-c2ccc(C(=O)N3Cc4ccc(C(=O)N5CCN(CCCN(C)C)CC5)n4Cc4ccccc43)cc2C)c1 [Example 248, {4-[3-(Dimethylamino)propyl]-1-piperazinyl}{10-[(3′-methoxy-2-methyl[1,1′-biphenyl]-4-yl)carbonyl]-10,11-dihydro-5H-pyrrolo[2,1-c][1,4]benzodiazepin-3-yl}methanone] | 77 |
| C=CCN1CCN(C(=O)c2ccc3n2Cc2ccccc2N(C(=O)c2ccc(-n4c(C)ccc4C)c(OC)c2)C3)CC1 [Example 318, (4-Allyl-1-piperazinyl){10-[4-(2,5-dimethyl-1H-pyrrol-1-yl)-3-methoxybenzoyl]-10,11-dihydro-5H-pyrrolo[2,1-c][1,4]benzodiazepin-3-yl}methanone] | 32 |
| Cc1ccccc1-c1ccc(C(=O)N2Cc3ccc(C(=O)N4CCCN(C)CC4)n3Cc3ccccc32)cc1C [Example 63, {10-[(2,2′-Dimethyl[1,1′-biphenyl]-4-yl)carbonyl]-10,11-dihydro-5H-pyrrolo[2,1-c][1,4]benzodiazepin-3-yl}(4-methyl-1,4-diazepan-1-yl)methanone] | 98 |
| Cc1cc(C(=O)N2Cc3ccc(C(=O)N4CCN(CCCN(C)C)CC4)n3Cc3ccccc32)ccc1-c1ccccc1C(F)(F)F [Example 257, {10-[(2-Methyl-2′-trifluoromethyl-[1,1′-biphenyl]-4-yl)carbonyl]-10,11-dihydro-5H-pyrrolo[2,1-c][1,4]benzodiazepin-3-yl}{4-[3-(dimethylamino)propyl]-1-piperazinyl}-methanone] | 85 |
| COc1cccc(-c2cc(OC)c(C(=O)N3Cc4ccc(C(=O)N[C@@H](CCCCNC(=O)OC(C)(C)C)C(N)=O)n4Cc4ccccc43)cc2Cl)c1 [Example 302, tert-Butyl (5S)-6-amino-5-[({10-[(6-chloro-3,3′-dimethoxy[1,1′-biphenyl]-4-yl)carbonyl]-10,11-dihydro-5H-pyrrolo[2,1-c][1,4]benzodiazepin-3-yl}carbonyl)amino]-6-oxohexylcarbamate] | 64 |
| COc1cc(C(=O)N2Cc3ccc(C(=O)N4CCN(CCCN(C)C)CC4)n3Cc3ccccc32)ccc1-n1c(C)ccc1C [Example 320, {4-[3-(Dimethylamino)propyl]-1-piperazinyl}{10-[4-(2,5-dimethyl-1H-pyrrol-1-yl)-3-methoxybenzoyl]-10,11-dihydro-5H-pyrrolo[2,1-c][1,4]benzodiazepin-3-yl}methanone] | 34 |
| COc1cc(C(=O)N2Cc3ccc(C(=O)N4CCN(C)CC4)n3Cc3ccccc32)ccc1-c1cccc2ccccc12 [Example 55, {10-[3-Methoxy-4-(1-naphthyl)benzoyl]-10,11-dihydro-5H-pyrrolo[2,1-c][1,4]benzodiazepin-3-yl}(4-methyl-1-piperazinyl)methanone] | 67 |
| COc1cccc(-c2ccc(C(=O)N3Cc4ccc(C(=O)N5CCN(C)CC5)n4Cc4ccccc43)cc2C)c1 [Example 51, {10-[(3′-Methoxy-2-methyl[1,1′-biphenyl]-4-yl)carbonyl]-10,11-dihydro-5H-pyrrolo[2,1-c][1,4]benzodiazepin-3-yl}(4-methyl-1-piperazinyl)methanone] | 81 |
